Results on 8 cell lines are retold here after the supplement of paper PMC10307832.

Holding throughout (assay): relative viability (nuclei count vs DMSO), 5 days (fraction); higher = more cells survive
Compound in the assay “Axitinib + Foretinib”: CNC(=O)c1ccccc1Sc1ccc2c(/C=C/c3ccccn3)n[nH]c2c1 [Axitinib] + COc1cc2c(Oc3ccc(NC(=O)C4(C(=O)Nc5ccc(F)cc5)CC4)cc3F)ccnc2cc1OCCCN1CCOCC1 [Foretinib] (partner 0.25 µM)
In short, it runs like this: (§1)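 The day after seeding in 1536-well plates, lung cancer cell lines were treated by pin tool with a single drug, or with a fixed anchor-drug dose together with five library-drug doses (not always all listed) in √10 steps. After 5 days, a combined fix-and-stain solution (final 0.05% Triton X-100, 1% formaldehyde, 1 ug/ml Hoechst) was added. Nuclei counted on 4× images gave relative viability as treated counts over vehicle counts, reported as the median of duplicate plates.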

Compound in the assay “Axitinib + Bortezomib”: CNC(=O)c1ccccc1Sc1ccc2c(/C=C/c3ccccn3)n[nH]c2c1 [Axitinib] + CC(C)C[C@H](NC(=O)[C@H](Cc1ccccc1)NC(=O)c1cnccn1)B(O)O [Bortezomib] (partner 0.002 µM)
In short, it runs like this:
as §1

Compound in the assay “Axitinib + Lapatinib”: CNC(=O)c1ccccc1Sc1ccc2c(/C=C/c3ccccn3)n[nH]c2c1 [Axitinib] + CS(=O)(=O)CCNCc1ccc(-c2ccc3ncnc(Nc4ccc(OCc5cccc(F)c5)c(Cl)c4)c3c2)o1 [Lapatinib] (partner 2 µM)
In short, it runs like this: as §1

Compound in assay [1]: CC1=CC=C(C=C1)C(=O)CN2C3=C(CCCC3)SC2=N [Pifithrin_alpha] + CC(=O)c1c(C)c2cnc(Nc3ccc(N4CCNCC4)cn3)nc2n(C2CCCC2)c1=O [Palbociclib] (partner 0.5 µM)
In a few lines: as §1

COR-L 105: the relative viability with Axitinib + Foretinib (first compound 0.005 µM) is 0.973; with Axitinib + Foretinib (first compound 0.01581 µM), 1.12; in the assay with Axitinib + Foretinib (first compound 0.05 µM) it was 1.16; in the assay with Axitinib + Foretinib (first compound 0.1581 µM), 1.05; with Axitinib + Foretinib (first compound 0.5 µM), 1.49; with Axitinib + Bortezomib (first compound 0.005 µM) it was 0.748. The relative viability is 0.868 with Axitinib + Bortezomib (first compound 0.01581 µM); 0.798 with Axitinib + Bortezomib (first compound 0.05 µM); 0.758 with Axitinib + Bortezomib (first compound 0.1581 µM); 0.92 with Axitinib + Bortezomib (first compound 0.5 µM); 0.355 with Axitinib + Lapatinib (first compound 0.005 µM); 0.357 with Axitinib + Lapatinib (first compound 0.01581 µM). Further, the relative viability in the assay with Axitinib + Lapatinib (first compound 0.05 µM) stood at 0.328; in the assay with Axitinib + Lapatinib (first compound 0.1581 µM), 0.381; in the assay with Axitinib + Lapatinib (first compound 0.5 µM), 0.38; in assay [1] (first compound 1 µM), 0.382; in assay [1] (first compound 3.162 µM) it was 0.42; in assay [1] (first compound 10 µM), 0.412. Further, the relative viability was determined as 0.357 in assay [1] (first compound 31.62 µM) and 0.406 in assay [1] (first compound 100 µM).

For the cell line Calu-6, the relative viability with Axitinib + Foretinib (first compound 0.005 µM) is 0.955; in the assay with Axitinib + Foretinib (first compound 0.01581 µM), 0.902; in the assay with Axitinib + Foretinib (first compound 0.05 µM), 0.855; in the assay with Axitinib + Foretinib (first compound 0.1581 µM), 0.904; with Axitinib + Foretinib (first compound 0.5 µM), 0.947; with Axitinib + Bortezomib (first compound 0.005 µM) it was 1.11. The relative viability in the assay with Axitinib + Bortezomib (first compound 0.01581 µM) was found to be 0.944; with Axitinib + Bortezomib (first compound 0.05 µM) it was 0.956; in the assay with Axitinib + Bortezomib (first compound 0.1581 µM), 1.1; in the assay with Axitinib + Bortezomib (first compound 0.5 µM), 0.996; with Axitinib + Lapatinib (first compound 0.005 µM), 1.07; with Axitinib + Lapatinib (first compound 0.01581 µM) it was 1.11. Further, the relative viability with Axitinib + Lapatinib (first compound 0.05 µM) is 1.08; with Axitinib + Lapatinib (first compound 0.1581 µM) it was 1.06; with Axitinib + Lapatinib (first compound 0.5 µM), 1.39.

Regarding ChaGo-K-1, the relative viability with Axitinib + Foretinib (first compound 0.005 µM) was determined as 0.961; with Axitinib + Foretinib (first compound 0.01581 µM), 1; with Axitinib + Foretinib (first compound 0.05 µM), 0.984; in the assay with Axitinib + Foretinib (first compound 0.1581 µM), 0.889; in the assay with Axitinib + Foretinib (first compound 0.5 µM), 1; with Axitinib + Bortezomib (first compound 0.005 µM), 0.953. The relative viability came to 0.919 with Axitinib + Bortezomib (first compound 0.01581 µM); 1.13 with Axitinib + Bortezomib (first compound 0.05 µM); 1.05 with Axitinib + Bortezomib (first compound 0.1581 µM); 1.16 in the assay with Axitinib + Bortezomib (first compound 0.5 µM); 0.87 in assay [1] (first compound 1 µM); 0.955 in assay [1] (first compound 3.162 µM). The relative viability in assay [1] (first compound 10 µM) worked out at 0.901; in assay [1] (first compound 31.62 µM), 0.509; in assay [1] (first compound 100 µM), 0.911.

For EBC-1, the relative viability was 0.104 with Axitinib + Foretinib (first compound 0.005 µM); 0.116 with Axitinib + Foretinib (first compound 0.01581 µM); 0.0984 in the assay with Axitinib + Foretinib (first compound 0.05 µM); 0.0972 with Axitinib + Foretinib (first compound 0.1581 µM); 0.122 with Axitinib + Foretinib (first compound 0.5 µM); 0.631 in the assay with Axitinib + Bortezomib (first compound 0.005 µM). The relative viability in the assay with Axitinib + Bortezomib (first compound 0.01581 µM) worked out at 0.657; in the assay with Axitinib + Bortezomib (first compound 0.05 µM) it was 0.521; with Axitinib + Bortezomib (first compound 0.1581 µM), 0.565; with Axitinib + Bortezomib (first compound 0.5 µM) it was 0.629; in the assay with Axitinib + Lapatinib (first compound 0.005 µM), 0.218; in the assay with Axitinib + Lapatinib (first compound 0.01581 µM) it was 0.218. The relative viability with Axitinib + Lapatinib (first compound 0.05 µM) stood at 0.172; with Axitinib + Lapatinib (first compound 0.1581 µM), 0.239; with Axitinib + Lapatinib (first compound 0.5 µM) it was 0.221.

For the cell line EKVX, the relative viability with Axitinib + Foretinib (first compound 0.005 µM) worked out at 0.861; with Axitinib + Foretinib (first compound 0.01581 µM), 0.786; in the assay with Axitinib + Foretinib (first compound 0.05 µM), 0.349; in the assay with Axitinib + Foretinib (first compound 0.1581 µM), 0.778; in the assay with Axitinib + Foretinib (first compound 0.5 µM), 0.824; in the assay with Axitinib + Bortezomib (first compound 0.005 µM), 1.13. In addition, the relative viability with Axitinib + Bortezomib (first compound 0.01581 µM) was determined as 1.08; with Axitinib + Bortezomib (first compound 0.05 µM) it was 0.98; in the assay with Axitinib + Bortezomib (first compound 0.1581 µM), 1.03; in the assay with Axitinib + Bortezomib (first compound 0.5 µM), 0.997; in the assay with Axitinib + Lapatinib (first compound 0.005 µM), 0.178; with Axitinib + Lapatinib (first compound 0.01581 µM), 0.226. Further, the relative viability with Axitinib + Lapatinib (first compound 0.05 µM) was determined as 0.222; with Axitinib + Lapatinib (first compound 0.1581 µM), 0.216; with Axitinib + Lapatinib (first compound 0.5 µM), 0.183; in assay [1] (first compound 1 µM), 0.387; in assay [1] (first compound 3.162 µM), 0.33; in assay [1] (first compound 10 µM), 0.321. Also, the relative viability in assay [1] (first compound 31.62 µM) turned out to be 0.257; in assay [1] (first compound 100 µM), 0.276.

For EMC-BAC-2, the relative viability in the assay with Axitinib + Foretinib (first compound 0.005 µM) worked out at 1.05; in the assay with Axitinib + Foretinib (first compound 0.01581 µM), 1.08; in the assay with Axitinib + Foretinib (first compound 0.05 µM) it was 1.03; with Axitinib + Foretinib (first compound 0.1581 µM), 1.08; in the assay with Axitinib + Foretinib (first compound 0.5 µM), 1.09; with Axitinib + Bortezomib (first compound 0.005 µM) it was 1.13. The relative viability with Axitinib + Bortezomib (first compound 0.01581 µM) is 1.04; with Axitinib + Bortezomib (first compound 0.05 µM), 1.09; with Axitinib + Bortezomib (first compound 0.1581 µM), 1.13; with Axitinib + Bortezomib (first compound 0.5 µM), 1.07; with Axitinib + Lapatinib (first compound 0.005 µM) it was 0.917; with Axitinib + Lapatinib (first compound 0.01581 µM) it was 0.869. Further, the relative viability is 0.947 with Axitinib + Lapatinib (first compound 0.05 µM); 0.915 with Axitinib + Lapatinib (first compound 0.1581 µM); 0.803 with Axitinib + Lapatinib (first compound 0.5 µM); 0.493 in assay [1] (first compound 1 µM); 0.542 in assay [1] (first compound 3.162 µM); 0.489 in assay [1] (first compound 10 µM). In addition, the relative viability in assay [1] (first compound 31.62 µM) was determined as 0.422; in assay [1] (first compound 100 µM), 0.506.

For EPLC-272H, the relative viability with Axitinib + Foretinib (first compound 0.005 µM) was 0.639; in the assay with Axitinib + Foretinib (first compound 0.01581 µM) it was 0.745; with Axitinib + Foretinib (first compound 0.05 µM), 0.579; with Axitinib + Foretinib (first compound 0.1581 µM), 0.735; with Axitinib + Foretinib (first compound 0.5 µM), 0.637; with Axitinib + Bortezomib (first compound 0.005 µM), 0.986. Moreover, the relative viability in the assay with Axitinib + Bortezomib (first compound 0.01581 µM) is 0.804; with Axitinib + Bortezomib (first compound 0.05 µM) it was 0.857; with Axitinib + Bortezomib (first compound 0.1581 µM), 0.994; with Axitinib + Bortezomib (first compound 0.5 µM) it was 0.892; in the assay with Axitinib + Lapatinib (first compound 0.005 µM) it was 0.97; with Axitinib + Lapatinib (first compound 0.01581 µM) it was 0.889. Also, the relative viability with Axitinib + Lapatinib (first compound 0.05 µM) amounted to 0.906; with Axitinib + Lapatinib (first compound 0.1581 µM), 0.975; with Axitinib + Lapatinib (first compound 0.5 µM) it was 0.94; in assay [1] (first compound 3.162 µM) it was 0.322; in assay [1] (first compound 10 µM), 0.334; in assay [1] (first compound 31.62 µM), 0.315. In addition, in assay [1] (first compound 100 µM), the relative viability was 0.351.

For the cell line HCC-44, the relative viability was 0.925 with Axitinib + Bortezomib (first compound 0.005 µM); 0.859 in the assay with Axitinib + Bortezomib (first compound 0.01581 µM); 0.855 with Axitinib + Bortezomib (first compound 0.05 µM); 0.89 with Axitinib + Bortezomib (first compound 0.1581 µM); 1.01 with Axitinib + Bortezomib (first compound 0.5 µM); 1.08 in the assay with Axitinib + Lapatinib (first compound 0.005 µM). Moreover, the relative viability with Axitinib + Lapatinib (first compound 0.01581 µM) turned out to be 1.02; with Axitinib + Lapatinib (first compound 0.05 µM), 1.01; with Axitinib + Lapatinib (first compound 0.1581 µM) it was 1.09; with Axitinib + Lapatinib (first compound 0.5 µM), 1.01; in assay [1] (first compound 1 µM) it was 0.825; in assay [1] (first compound 3.162 µM) it was 0.922. The values for the relative viability in assay [1] (first compound 10 µM), in assay [1] (first compound 31.62 µM) and in assay [1] (first compound 100 µM) were 0.867, 0.81 and 0.812, respectively.
